Experimental data as given in patent publication US4017534A, “16-Fluoro-11-deoxy-13-dihydro-prostaglandin” (American Cyanamid Company, priority 1975, dated 1977).

Assays:
[1] = tested on: bronchospasms elicited by acetylcholine; assay: Bronchodilator activity (intraduodenal route) against acetylcholine; format: in vivo, guinea pigs; set-up: key: 0: no activity; +: minimal activity; ++++: maximum activity; conditions: intraduodenal dose 3.2 mg./kg.
Method: (§1) The compounds of this invention are useful as bronchodilators for the treatment of asthma and chronic bronchitis. Bronchodilator activity is determined in guinea pigs against bronchospasms elicited by intravenous injections of 5-hydroxytryptamine, histamine or acetylcholine by the Konzett procedure. [See J. Lulling, P. Lievens, F. El Sayed and J. Prignot, Arzneimittel-Forschung, 18, 995 (1968).]
(§2) In Table A' which follows bronchodilator activity for representative compounds of this invention against one or more of three spasmogenic agents is reported. In this assay candidate compounds are suspended in 10% gum arabic solution and the suspension is administered by the intraduodenal route. The activity of the compound at any one dose is then investigated throughout the following hour (see above-cited reference, J. Lulling et al.). Potency is then reported as O, +, ++, +++, or ++++, wherein 0 represents no activity, + minimal activity and ++++ maximum activity.

[2] = tested on: bronchospasms elicited by 5-hydroxytryptamine; assay: Bronchodilator activity (intraduodenal route) against 5-hydroxytryptamine; format: in vivo, guinea pigs; set-up: key: 0: no activity; +: minimal activity; ++++: maximum activity; conditions: intraduodenal dose 3.2 mg./kg.
Method: as §1, §2

## CCCCC[C@H](O)CC[C@H]1CCC2(OCCCO2)[C@@H]1CCCCCCC(=O)O [l-15(S)-hydroxy-9,9-(propylenedioxy)-prostanoic acid]
[1]
  Bronchodilator potency, Spasmogenic Agent Acetylcholine: +
[2]
  Bronchodilator potency, Spasmogenic Agent 5-Hydroxytryptamine: +
